Results as given in the NIST ThermoML archive (doi:10.1016/j.jct.2018.02.022).

Test: xn = mol fraction of the nth substance listed
Details: 308.15 K, 92.3 kPa, Liquid; for viscosity: Concentric cylinders viscometry; for speed of sound: Frequency=3 MHz, Single path-length method; for mass density: Vibrating tube method

OCCOCCOCCO [triethylene glycol] + O
Details	mass density [kg/m3]	speed of sound [m/s]	viscosity [mPa·s]
x1 = 0.0101	1005.03	1554.2	–
x1 = 0.0196	1014.27	1582.2	–
x1 = 0.025	1019.05	–	1.265
x1 = 0.029	1022.86	1606.8	–
x1 = 0.0381	1030.16	1627	–
x1 = 0.0489	1037.64	–	1.865
x1 = 0.0496	1038.52	1648.6	–
x1 = 0.0601	1045.38	1664.8	–
x1 = 0.0689	1050.48	1675.8	–
x1 = 0.0754	1053.78	–	2.68
x1 = 0.0801	1056.32	1687	–
x1 = 0.0905	1061.17	1695	–
x1 = 0.0993	1065.07	–	3.561
x1 = 0.0996	1065.01	1700.4	–
x1 = 0.1479	1080.2	1710.8	–
x1 = 0.15	1081.49	–	5.617
x1 = 0.1993	1090.78	–	7.962
x1 = 0.2004	1090.24	1703.7	–
x1 = 0.2462	1095.85	1691.9	–
x1 = 0.2526	1096.6	–	10.33
x1 = 0.2998	1099.82	–	12.25
x1 = 0.3004	1100.16	1676.8	–
x1 = 0.3474	1102.74	1664.2	–
x1 = 0.3539	1102.46	–	14.19
x1 = 0.3948	1104.64	1652.5	–
x1 = 0.4009	1104.33	–	15.72
x1 = 0.4467	1106.18	1641.2	–
x1 = 0.4492	1106.02	–	17.03
x1 = 0.4992	1107.51	–	18.22
x1 = 0.5021	1107.42	1630.7	–
x1 = 0.548	1108.22	1623.2	–
x1 = 0.5484	1108.65	–	19.23
x1 = 0.5923	1108.87	1616.6	–
x1 = 0.5996	1109.45	–	20.07
x1 = 0.6442	1109.46	1610.1	–
x1 = 0.6506	1109.87	–	20.77
x1 = 0.701	1110.02	–	21.48
x1 = 0.7095	1110.08	1603.2	–
x1 = 0.7531	1110.43	1598.8	–
x1 = 0.7567	1110.11	–	22.1
x1 = 0.7859	1110.68	1595.9	–
x1 = 0.8035	1110.31	–	22.51
x1 = 0.8387	1111	1591.9	–
x1 = 0.8406	1110.64	–	22.83
x1 = 0.8981	1111.39	–	23.14
x1 = 0.9031	1111.37	1587.2	–
x1 = 0.9181	1111.42	1586.5	–
x1 = 0.9344	1111.52	1585.5	–
x1 = 0.9489	1111.91	–	23.46
x1 = 0.9569	1111.62	1584.2	–
x1 = 0.9782	1111.71	1583	–
x1 = 1	1111.81	1581.7	23.72
